From patent US4257941A, “Polycyclic nitrogen-containing compounds” (BASF Aktiengesellschaft, priority 1976, dated 1981)
Read-outs that look alike come from different tables or passages of the source.

Experiments:
Type in all cases: in vivo
[1] = tested on: Lamium spp.; assay: Herbicidal action (Example 25)
Protocol: (§1) Paraffined paper cups having a volume of 170 cm^3 were filled with a sandy loam, and the seeds of the test plants sown therein, separated by species. (The species are also listed below.)
(§2) In the first group, treatment was effected immediately after sowing and before germination of the seeds (preemergence treatment=soil treatment). Shallow sown seeds not completely covered with soil came into contact with the active ingredients. In the second group, the plants were treated postemergence (=leaf treatment) at a growth height of from 2 to 8 cm, depending on the rate of growth and shape of the species concerned. The compounds were suspended or emulsified in water and applied with the aid of fine nozzles. The soil and plants were thoroughly sprinkler irrigated for the duration of the experiment. The cups were placed in the greenhouse and kept in the temperature range 12°-25° C. or 18°-35° C., depending on the temperature requirements of the various species. After 2 to 6 weeks the action was assessed visually on a 0 to 100 scale, 0 denoting no damage and 100 denoting plants not germinated or completely destroyed.

[2] = tested on: Galium aparine; assay: Herbicidal action (Example 25); details: read-out: percentage damage
Protocol: as §1, §2

[3] = tested on: Solanum nigrum; assay: Herbicidal action (Example 25)
Protocol: as §1, §2

[4] = tested on: Poa annua; assay: Herbicidal action (Example 25); details: for pest or weed control at 2000 g/ha / pest or weed control at 4000 g/ha / pest or weed control at 8000 g/ha: Poa annua, read-out: percentage damage; for pest or weed control at 4000 g/ha: 4.0 kg/ha; for pest or weed control at 8000 g/ha: 8.0 kg/ha
Protocol: as §1, §2

[5] = tested on: Triticum aestivum; assay: Growth height of young cereal plants (Example 11, Table A)
Description: (§3) The vessels used for the experiments were plastic pots having a volume of 1,130 cm^3 (Table A) or paraffined paper cups having a volume of 170 cm^3 (Table B). The pots and cups were filled with a sandy loam. The seeds of the test plants-separated by species-were sown shallow. Preemergence treatment (soil treatment) was effected immediately after sowing and before germination of the seeds. Seeds lying on the surface came into contact with the active ingredients. Postemergence treatment (leaf treatment) took place at an average growth height of the plants (depending on the rate of growth) of from 6 to 10 cm. The substances were suspended, emulsified or dissolved in water as diluent and applied by means of fine nozzles. The vessels were kept in the greenhouse in a temperature range of 12° C. to 25° C., and were regularly sprinkler irrigated for the duration of the experiment. The observation period was 6 to 8 weeks.

[6] = tested on: Hordeum vulgare; assay: as above; details: soil treatment
Description: as §3

[7] = post-emergence, postemergence, 2.0 kg/ha
[8] = post-emergence, postemergence, 4.0 kg/ha
[9] = post-emergence, postemergence, 8.0 kg/ha
[10] = pre-emergence, preemergence, 2.0 kg/ha
[11] = pre-emergence, preemergence, 4.0 kg/ha
[12] = pre-emergence, preemergence, 8.0 kg/ha

SMILES	percentage damage ([1]; postemergence, 2.0 kg/ha) [percentage damage]	percentage damage ([1]; postemergence, 4.0 kg/ha) [percentage damage]	percentage damage ([1]; postemergence, 8.0 kg/ha) [percentage damage]	percentage damage ([1]; preemergence, 2.0 kg/ha) [percentage damage]	percentage damage ([1]; preemergence, 4.0 kg/ha) [percentage damage]	percentage damage ([1]; preemergence, 8.0 kg/ha) [percentage damage]	percentage damage ([3]; postemergence, 2.0 kg/ha) [percentage damage]	percentage damage ([3]; postemergence, 4.0 kg/ha) [percentage damage]	percentage damage ([3]; postemergence, 8.0 kg/ha) [percentage damage]	percentage damage ([3]; preemergence, 2.0 kg/ha) [percentage damage]	percentage damage ([3]; preemergence, 4.0 kg/ha) [percentage damage]	percentage damage ([3]; preemergence, 8.0 kg/ha) [percentage damage]	pest or weed control at 2000 g/ha [4, 7] [%]	Growth height ([5]; leaf treatment, 0.5 kg/ha) [cm]	Growth height ([5]; leaf treatment, 1.0 kg/ha) [cm]	Growth height ([5]; leaf treatment, 2.0 kg/ha) [cm]	Growth height ([5]; soil treatment, 0.5 kg/ha) [cm]	Growth height ([6]; 0.5 kg/ha) [cm]	Growth height ([6]; 1.0 kg/ha) [cm]	Growth height ([6]; 2.0 kg/ha) [cm]	further results
CC(C)OC(=O)Nc1cccc(Cl)c1 [drawing 426]	50	50	90	72	90	95	22	22	38	85	85	90	30								pest or weed control at 2000 g/ha [2, 7]: 0%; pest or weed control at 4000 g/ha [2, 8]: 0%; pest or weed control at 8000 g/ha [2, 9]: 10%; pest or weed control at 2000 g/ha [2, 10]: 88%; pest or weed control at 4000 g/ha [2, 11]: 80%; pest or weed control at 8000 g/ha [2, 12]: 88%; pest or weed control at 4000 g/ha ([4]; post-emergence, postemergence): 30%; pest or weed control at 8000 g/ha ([4]; post-emergence, postemergence): 42%; pest or weed control at 2000 g/ha [4, 10]: 100%; pest or weed control at 4000 g/ha ([4]; pre-emergence, preemergence): 100%; pest or weed control at 8000 g/ha ([4]; pre-emergence, preemergence): 100%
CN(C)C(=O)Nc1ccc(Oc2ccccc2)cc1 [drawing 427]	75	85	85	50	65	75	100	100	100	75	80	90	30								pest or weed control at 2000 g/ha [2, 7]: 0%; pest or weed control at 4000 g/ha [2, 8]: 0%; pest or weed control at 8000 g/ha [2, 9]: 0%; pest or weed control at 2000 g/ha [2, 10]: 60%; pest or weed control at 4000 g/ha [2, 11]: 80%; pest or weed control at 8000 g/ha [2, 12]: 75%; pest or weed control at 4000 g/ha ([4]; post-emergence, postemergence): 30%; pest or weed control at 8000 g/ha ([4]; post-emergence, postemergence): 30%; pest or weed control at 2000 g/ha [4, 10]: 50%; pest or weed control at 4000 g/ha ([4]; pre-emergence, preemergence): 58%; pest or weed control at 8000 g/ha ([4]; pre-emergence, preemergence): 65%
Clc1cccc(N2N=NC3C4CC(C5N=NC45)C32)c1 (centres unmarked) [drawing 364]														25	13	12	15	43	40	30	Growth height ([5]; leaf treatment, 0.25 kg/ha): 29 cm; Growth height ([5]; soil treatment, 0.25 kg/ha): 26 cm
C=CCN(CC=C)C(=O)CCl [drawing 428]	0	10	20	25	60	85	10	10	20	0	15	25	35								pest or weed control at 2000 g/ha ([2]; post-emergence): 5%; pest or weed control at 4000 g/ha ([2]; post-emergence): 5%; pest or weed control at 8000 g/ha ([2]; post-emergence): 5%; pest or weed control at 2000 g/ha ([2]; pre-emergence): 70%; pest or weed control at 4000 g/ha ([2]; pre-emergence): 80%; pest or weed control at 8000 g/ha ([2]; pre-emergence): 90%; pest or weed control at 4000 g/ha ([4]; post-emergence, postemergence): 35%; pest or weed control at 8000 g/ha ([4]; post-emergence, postemergence): 40%; pest or weed control at 2000 g/ha [4, 10]: 95%; pest or weed control at 4000 g/ha ([4]; pre-emergence, preemergence): 98%; pest or weed control at 8000 g/ha ([4]; pre-emergence, preemergence): 100%
c1ccc(N2N=NC3C4CC(C5N=NC45)C32)cc1 (centres unmarked) [drawing 431]	60	90	90	95	95	95	85	100	100	95	95	95	35								pest or weed control at 2000 g/ha [2, 7]: 10%; pest or weed control at 4000 g/ha [2, 8]: 15%; pest or weed control at 8000 g/ha [2, 9]: 20%; pest or weed control at 2000 g/ha [2, 10]: 80%; pest or weed control at 4000 g/ha [2, 11]: 100%; pest or weed control at 8000 g/ha [2, 12]: 100%; pest or weed control at 4000 g/ha ([4]; post-emergence, postemergence): 40%; pest or weed control at 8000 g/ha ([4]; post-emergence, postemergence): 50%; pest or weed control at 4000 g/ha ([4]; pre-emergence, preemergence): 100%; pest or weed control at 8000 g/ha ([4]; pre-emergence, preemergence): 100%; percentage damage ([4]; preemergence, 2.0 kg/ha): 100 percentage damage
Clc1ccc(N2N=NC3C4CC(C5N=NC45)C32)c(Cl)c1 (centres unmarked)														40	34	35	25	40	38	53	Growth height ([5]; soil treatment, 1.0 kg/ha): 25 cm; Growth height ([5]; soil treatment, 2.0 kg/ha): 20 cm
O=[N+]([O-])c1cccc(N2N=NC3C4CC(C5N=NC45)C32)c1 (centres unmarked)														28	28	17	26	36	36	29	Growth height ([5]; soil treatment, 1.0 kg/ha): 26 cm; Growth height ([5]; soil treatment, 2.0 kg/ha): 13 cm
c1csc(N2N=NC3C4CC(C5N=NC45)C32)n1 (centres unmarked) [drawing 432]	55	60	95	95	95	95	90	95	100	95	95	95	38								pest or weed control at 2000 g/ha [2, 7]: 10%; pest or weed control at 4000 g/ha [2, 8]: 18%; pest or weed control at 8000 g/ha [2, 9]: 30%; pest or weed control at 2000 g/ha [2, 10]: 72%; pest or weed control at 4000 g/ha [2, 11]: 98%; pest or weed control at 8000 g/ha [2, 12]: 90%; pest or weed control at 4000 g/ha ([4]; post-emergence, postemergence): 52%; pest or weed control at 8000 g/ha ([4]; post-emergence, postemergence): 68%; pest or weed control at 2000 g/ha [4, 10]: 80%; pest or weed control at 4000 g/ha ([4]; pre-emergence, preemergence): 92%; pest or weed control at 8000 g/ha ([4]; pre-emergence, preemergence): 95%
FC(F)(F)c1ccc(Cl)c(N2N=NC3C4CC(C5N=NC45)C32)c1 (centres unmarked) [drawing 361]														42	27	20	16	40	39	38	Growth height ([5]; soil treatment, 1.0 kg/ha): 15 cm; Growth height ([5]; soil treatment, 2.0 kg/ha): 0 cm
c1cc2sncc2cc1N1N=NC2C3CC(C4N=NC34)C21 (centres unmarked) [drawing 368]														23	26	20	28	36	39	31	Growth height ([5]; leaf treatment, 0.25 kg/ha): 30 cm; Growth height ([5]; soil treatment, 0.25 kg/ha): 32 cm; Growth height ([5]; soil treatment, 1.0 kg/ha): 20 cm; Growth height ([5]; soil treatment, 2.0 kg/ha): 23 cm
Brc1ccccc1N1N=NC2C3CC(C4N=NC34)C21 (centres unmarked) [drawing 365]														35	33	33	22	40	42	31	Growth height ([5]; soil treatment, 1.0 kg/ha): 12 cm; Growth height ([5]; soil treatment, 2.0 kg/ha): 10 cm
